Results: patent US11753395B2 (Kinnate Biopharma Inc., priority 2021, dated 2023)
pEC50, pIC50: −log10 of the molar value.

Key:
[1] = target: T1, MET (Homo sapiens, UniProt P08581); experiment: MET Mobility Shift Assay; settings: biochemical assay IC50; 100 μM ATP, 60 minute kinase reaction
T1 construct: purchased Carna Biosciences 08-151
In short: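 Recombinant MET at 0.625 nM was pre-incubated 30 min at room temperature with 1.5 μM FLPeptide30 and 10 mM MgCl2 in HEPES buffer with DTT. The reaction was started with 100 μM ATP, ran 60 min, and was stopped with EDTA. Microfluidic mobility-shift % conversion gave IC50.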

[2] = target: T2, Ba/F3-TPR-MET-D1228N cells (Homo sapiens, UniProt P08581, D1228N, cells depend on it); experiment: CellTiter-Glo Cell Viability Assay, Ba/F3-TPR-MET-D1228N; type: cell-based; settings: 72 hours
T2 construct: fused on or other part: P12270 (Nucleoprotein TPR)
In short: (§1)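 Ba/F3 cells carrying TPR-MET or TPR-MET-D1228N, 3000 per well, were exposed for 72 h at 37 °C to 9-point 3-fold compound dilutions at 0.1% DMSO. Viability was read as ATP by CellTiter-Glo 2.0 luminescence, and IC50 values came from curve fitting.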

[3] = target: T3, Ba/F3-TPR-MET cells (Homo sapiens, UniProt P08581); experiment: CellTiter-Glo Cell Viability Assay, Ba/F3-TPR-MET; type: cell-based; settings: 72 hours
T3 construct: fused on or other part: P12270 (Nucleoprotein TPR)
In short: as §1

[4] = target: T4, MET D1228N (Homo sapiens, UniProt P08581, D1228N); experiment: MET D1228N Mobility Shift Assay; settings: biochemical assay IC50; 100 μM ATP, 60 minute kinase reaction
T4 construct: purchased Signalchem M52-12IG
In short: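 Enzyme at 0.313 nM preincubated 30 min at room temperature with 1.5 μM FAM-labelled peptide and 10 mM MgCl2 in HEPES buffer with DTT; reaction started with 100 μM ATP, run 60 min, stopped with EDTA. Substrate/product separated by microfluidic mobility shift; IC50 from inhibition of % conversion.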

T3 sequence (P08581 whole entry, change not shown, the tested form may be a part): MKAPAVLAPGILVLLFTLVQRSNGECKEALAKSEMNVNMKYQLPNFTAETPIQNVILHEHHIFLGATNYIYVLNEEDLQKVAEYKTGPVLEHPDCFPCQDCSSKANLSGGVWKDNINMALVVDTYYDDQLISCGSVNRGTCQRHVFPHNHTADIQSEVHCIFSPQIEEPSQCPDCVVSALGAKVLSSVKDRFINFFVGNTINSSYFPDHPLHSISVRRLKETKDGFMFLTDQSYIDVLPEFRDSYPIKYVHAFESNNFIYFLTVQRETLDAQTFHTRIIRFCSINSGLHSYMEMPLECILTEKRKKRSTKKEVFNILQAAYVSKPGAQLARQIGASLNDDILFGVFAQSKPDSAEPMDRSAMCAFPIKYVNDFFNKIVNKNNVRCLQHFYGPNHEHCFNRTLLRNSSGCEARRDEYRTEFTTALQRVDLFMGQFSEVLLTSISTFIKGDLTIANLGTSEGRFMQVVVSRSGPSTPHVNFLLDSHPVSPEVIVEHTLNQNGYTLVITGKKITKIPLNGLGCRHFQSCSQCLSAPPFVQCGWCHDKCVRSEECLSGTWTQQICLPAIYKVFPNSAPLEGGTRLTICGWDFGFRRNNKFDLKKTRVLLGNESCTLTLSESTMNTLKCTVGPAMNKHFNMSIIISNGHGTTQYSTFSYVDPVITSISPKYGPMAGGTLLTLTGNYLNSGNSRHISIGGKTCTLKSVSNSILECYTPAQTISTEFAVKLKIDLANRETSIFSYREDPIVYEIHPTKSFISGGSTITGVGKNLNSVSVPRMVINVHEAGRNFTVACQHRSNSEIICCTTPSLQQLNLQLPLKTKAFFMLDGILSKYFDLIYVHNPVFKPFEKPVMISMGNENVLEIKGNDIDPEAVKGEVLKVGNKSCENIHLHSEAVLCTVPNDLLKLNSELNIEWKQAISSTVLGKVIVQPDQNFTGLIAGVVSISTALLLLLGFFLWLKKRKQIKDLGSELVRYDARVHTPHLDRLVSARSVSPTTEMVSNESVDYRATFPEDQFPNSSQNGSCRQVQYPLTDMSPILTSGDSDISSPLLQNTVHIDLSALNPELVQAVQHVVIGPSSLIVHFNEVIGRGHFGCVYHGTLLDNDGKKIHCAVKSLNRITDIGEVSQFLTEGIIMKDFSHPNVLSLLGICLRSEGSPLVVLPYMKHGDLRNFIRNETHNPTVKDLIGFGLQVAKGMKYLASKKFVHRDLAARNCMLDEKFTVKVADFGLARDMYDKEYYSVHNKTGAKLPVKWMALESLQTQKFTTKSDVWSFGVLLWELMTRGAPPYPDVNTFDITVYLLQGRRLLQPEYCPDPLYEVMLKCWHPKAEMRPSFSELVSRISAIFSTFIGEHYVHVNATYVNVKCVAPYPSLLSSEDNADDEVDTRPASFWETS
T4 sequence (P08581 25-1390 D1228N): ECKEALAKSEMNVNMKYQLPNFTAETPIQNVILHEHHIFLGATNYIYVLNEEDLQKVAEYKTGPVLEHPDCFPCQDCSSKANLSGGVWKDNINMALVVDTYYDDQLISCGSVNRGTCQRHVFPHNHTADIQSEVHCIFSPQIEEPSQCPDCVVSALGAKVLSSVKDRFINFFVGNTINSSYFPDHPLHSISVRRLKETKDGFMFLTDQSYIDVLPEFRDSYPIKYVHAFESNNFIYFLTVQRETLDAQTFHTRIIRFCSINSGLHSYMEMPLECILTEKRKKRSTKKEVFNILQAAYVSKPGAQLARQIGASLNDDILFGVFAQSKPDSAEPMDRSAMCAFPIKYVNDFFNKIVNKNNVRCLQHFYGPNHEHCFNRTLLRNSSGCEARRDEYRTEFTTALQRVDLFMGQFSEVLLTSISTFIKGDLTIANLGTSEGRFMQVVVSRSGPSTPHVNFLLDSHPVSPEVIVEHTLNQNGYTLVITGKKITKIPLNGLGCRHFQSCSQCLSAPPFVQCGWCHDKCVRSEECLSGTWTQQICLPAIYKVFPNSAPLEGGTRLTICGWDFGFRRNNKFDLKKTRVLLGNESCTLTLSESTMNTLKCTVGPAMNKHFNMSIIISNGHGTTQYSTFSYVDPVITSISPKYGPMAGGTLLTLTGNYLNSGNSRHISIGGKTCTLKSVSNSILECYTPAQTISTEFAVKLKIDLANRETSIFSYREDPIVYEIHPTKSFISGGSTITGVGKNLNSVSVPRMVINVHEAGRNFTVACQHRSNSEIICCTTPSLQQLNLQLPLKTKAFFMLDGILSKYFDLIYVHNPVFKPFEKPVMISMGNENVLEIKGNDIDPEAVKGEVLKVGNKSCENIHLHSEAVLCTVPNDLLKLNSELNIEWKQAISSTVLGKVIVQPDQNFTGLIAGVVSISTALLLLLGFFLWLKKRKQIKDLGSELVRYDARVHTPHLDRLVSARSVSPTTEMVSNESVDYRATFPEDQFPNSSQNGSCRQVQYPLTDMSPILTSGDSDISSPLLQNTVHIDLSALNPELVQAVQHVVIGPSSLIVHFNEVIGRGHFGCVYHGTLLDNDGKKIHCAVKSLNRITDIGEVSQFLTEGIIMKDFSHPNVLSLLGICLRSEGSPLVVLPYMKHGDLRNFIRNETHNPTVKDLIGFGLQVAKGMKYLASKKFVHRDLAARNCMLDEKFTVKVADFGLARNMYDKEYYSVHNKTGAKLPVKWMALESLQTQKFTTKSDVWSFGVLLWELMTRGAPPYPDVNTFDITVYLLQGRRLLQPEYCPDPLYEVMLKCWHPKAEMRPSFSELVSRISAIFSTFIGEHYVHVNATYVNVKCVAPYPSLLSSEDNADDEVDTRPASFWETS
T1 sequence (P08581 25-1390): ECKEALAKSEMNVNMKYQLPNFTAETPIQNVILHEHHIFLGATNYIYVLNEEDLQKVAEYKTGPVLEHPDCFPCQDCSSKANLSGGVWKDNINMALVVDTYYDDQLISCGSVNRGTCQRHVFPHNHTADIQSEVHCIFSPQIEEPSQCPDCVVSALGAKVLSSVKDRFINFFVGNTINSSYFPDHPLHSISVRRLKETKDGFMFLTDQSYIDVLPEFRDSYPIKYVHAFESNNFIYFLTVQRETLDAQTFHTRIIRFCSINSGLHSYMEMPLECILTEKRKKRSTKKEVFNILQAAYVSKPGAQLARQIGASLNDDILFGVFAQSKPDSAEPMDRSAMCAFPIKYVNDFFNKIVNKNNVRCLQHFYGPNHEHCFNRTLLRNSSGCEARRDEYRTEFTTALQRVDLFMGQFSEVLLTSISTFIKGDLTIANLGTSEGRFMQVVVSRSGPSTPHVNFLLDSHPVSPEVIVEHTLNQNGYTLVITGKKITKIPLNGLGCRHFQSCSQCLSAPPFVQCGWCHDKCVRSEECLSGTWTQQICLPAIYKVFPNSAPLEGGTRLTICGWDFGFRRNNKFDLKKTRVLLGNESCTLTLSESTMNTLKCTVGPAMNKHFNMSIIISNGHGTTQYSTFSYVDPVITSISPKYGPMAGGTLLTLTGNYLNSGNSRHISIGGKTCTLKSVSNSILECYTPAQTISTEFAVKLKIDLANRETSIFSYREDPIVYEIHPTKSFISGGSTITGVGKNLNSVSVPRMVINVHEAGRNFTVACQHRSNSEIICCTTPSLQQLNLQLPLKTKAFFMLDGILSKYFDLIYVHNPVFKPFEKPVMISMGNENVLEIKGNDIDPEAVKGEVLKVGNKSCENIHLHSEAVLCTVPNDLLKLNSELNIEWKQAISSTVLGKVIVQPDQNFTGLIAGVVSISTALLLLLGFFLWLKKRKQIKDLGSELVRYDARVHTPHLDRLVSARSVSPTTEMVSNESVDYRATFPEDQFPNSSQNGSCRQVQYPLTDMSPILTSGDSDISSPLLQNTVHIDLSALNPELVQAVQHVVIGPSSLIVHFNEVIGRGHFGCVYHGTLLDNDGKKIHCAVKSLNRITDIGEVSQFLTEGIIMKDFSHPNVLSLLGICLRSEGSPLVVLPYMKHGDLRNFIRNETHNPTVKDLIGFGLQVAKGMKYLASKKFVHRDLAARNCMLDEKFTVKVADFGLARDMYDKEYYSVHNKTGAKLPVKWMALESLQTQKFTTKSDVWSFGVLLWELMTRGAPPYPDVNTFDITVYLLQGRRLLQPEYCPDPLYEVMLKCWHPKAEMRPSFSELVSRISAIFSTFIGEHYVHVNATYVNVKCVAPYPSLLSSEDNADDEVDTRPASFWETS

| Compound | pIC50 [1] | pEC50 [2] | pEC50 [3] | pIC50 [4] |
| --- | --- | --- | --- | --- |
| CNCCOc1cc2nccc(Oc3c(F)cc(NC(=O)c4cnc(C)cc4OC)cc3F)c2cc1OC [Example 45, N-(3,5-difluoro-4-((6-methoxy-7-(2-(methylamino)ethoxy)quinolin-4-yl)oxy)phenyl)-4-methoxy-6-methylpyridine-3-carboxamide] | ≥ 7.00 | 6.00 to 7.00 | 6.00 to 7.00 | ≥ 7.00 |
| COc1cc2c(Oc3c(F)cc(NC(=O)c4cnccc4OC4CC4)cc3F)ccnc2cc1OC[C@@H](C)O [Example 99, 4-cyclopropoxy-N-[3,5-difluoro-4-({7-[(2R)-2-hydroxypropoxy]-6-methoxyquinolin-4-yl}oxy)phenyl]pyridine-3-carboxamide] | ≥ 7.00 | ≥ 7.00 | ≥ 7.00 | ≥ 7.00 |
| CCCOc1ccncc1C(=O)Nc1cc(F)c(Oc2ccnc3cc(OCCNC)c(OC)cc23)c(F)c1 [Example 56, N-[3,5-difluoro-4-({6-methoxy-7-[2-(methylamino)ethoxy]quinolin-4-yl}oxy)phenyl]-4-propoxypyridine-3-carboxamide] | ≥ 7.00 | ≥ 7.00 | ≥ 7.00 | ≥ 7.00 |
| COc1ccc2c(Oc3c(F)cc(NC(=O)c4cnccc4OC4CC4)cc3F)ccnc2c1 [Example 90, 4-cyclopropoxy-N-{3,5-difluoro-4-[(7-methoxyquinolin-4-yl)oxy]phenyl}pyridine-3-carboxamide] | ≥ 7.00 | ≥ 7.00 | 6.00 to 7.00 | ≥ 7.00 |
| CNCCOc1cc2nccc(Oc3c(F)cc(NC(=O)c4cnccc4OC[C@@H](C)F)cc3F)c2cc1OC [Example 61, N-[3,5-difluoro-4-({6-methoxy-7-[2-(methylamino)ethoxy]quinolin-4-yl}oxy)phenyl]-4-[(2R)-2-fluoropropoxy]pyridine-3-carboxamide] | ≥ 7.00 | ≥ 7.00 | ≥ 7.00 | ≥ 7.00 |
| CNCCOc1cc2nccc(Oc3c(F)cc(NC(=O)c4cnccc4OCC4CC4)cc3F)c2cc1OC [Example 72, 4-(cyclopropylmethoxy)-N-[3,5-difluoro-4-({6-methoxy-7-[2-(methylamino)ethoxy]quinolin-4-yl}oxy)phenyl]pyridine-3-carboxamide] | ≥ 7.00 | ≥ 7.00 | 6.00 to 7.00 | ≥ 7.00 |
| CCOc1ccncc1C(=O)Nc1cc(F)c(Oc2ccnc3cc(OCCCNC)c(OC)cc23)c(F)c1 [Example 21, N-(3,5-difluoro-4-((6-methoxy-7-(3-(methylamino)propoxy)quinolin-4-yl)oxy)phenyl)-4-ethoxypyridine-3-carboxamide] | ≥ 7.00 | 6.00 to 7.00 | 6.00 to 7.00 | ≥ 7.00 |
| CNCCOc1cc2nccc(Oc3c(F)cc(NC(=O)c4cnccc4OCCO)cc3F)c2cc1OC [Example 63, N-[3,5-difluoro-4-({6-methoxy-7-[2-(methylamino)ethoxy]quinolin-4-yl}oxy)phenyl]-4-(2-hydroxyethoxy)pyridine-3-carboxamide] | ≥ 7.00 | 6.00 to 7.00 | 6.00 to 7.00 | ≥ 7.00 |
| COC[C@H](C)Oc1cc2c(Oc3c(F)cc(NC(=O)c4cnccc4OC)cc3F)ccnc2cc1OC [Example 128, (S)-N-(3,5-difluoro-4-((7-methoxy-6-((1-methoxypropan-2-yl)oxy)quinolin-4-yl)oxy)phenyl)-4-methoxynicotinamide] | ≥ 7.00 | ≥ 7.00 | ≥ 7.00 | ≥ 7.00 |
| CNCCOc1cc2nccc(Oc3c(F)cc(NC(=O)c4cccnc4OC4CC4)cc3F)c2cc1OC [Example 78, 2-cyclopropoxy-N-[3,5-difluoro-4-({6-methoxy-7-[2-(methylamino)ethoxy]quinolin-4-yl}oxy)phenyl]pyridine-3-carboxamide] | ≥ 7.00 | 6.00 to 7.00 | 6.00 to 7.00 | ≥ 7.00 |
| NC1(COc2ccc3c(Oc4c(F)cc(NC(=O)c5cnccc5OC5CC5)cc4F)ccnc3c2)CC1 [Example 88] | ≥ 7.00 | ≥ 7.00 | 6.00 to 7.00 | ≥ 7.00 |
| CNCCOc1ccc2c(Oc3c(F)cc(NC(=O)c4c(OC)ccnc4F)cc3F)ccnc2c1 [Example 9, N-(3,5-difluoro-4-((7-(2-(methylamino)ethoxy)quinolin-4-yl)oxy)phenyl)-2-fluoro-4-methoxypyridine-3-carboxamide] | ≥ 7.00 | ≥ 7.00 | 6.00 to 7.00 | ≥ 7.00 |
| CNCCOc1cc2nccc(Oc3c(F)cc(NC(=O)c4cnccc4OC4CCC4)cc3F)c2cc1OC [Example 55, 4-cyclobutoxy-N-(3,5-difluoro-4-((6-methoxy-7-(2-(methylamino)ethoxy)quinolin-4-yl)oxy)phenyl)pyridine-3-carboxamide] | ≥ 7.00 | ≥ 7.00 | 6.00 to 7.00 | ≥ 7.00 |
| CNCCOc1cc2nccc(Oc3c(F)cc(NC(=O)c4cnc(F)cc4OC4CC4)cc3F)c2cc1OC [Example 110, 4-cyclopropoxy-N-[3,5-difluoro-4-({6-methoxy-7-[2-(methylamino)ethoxy]quinolin-4-yl}oxy)phenyl]-6-fluoropyridine-3-carboxamide] | ≥ 7.00 | ≥ 7.00 | ≥ 7.00 | ≥ 7.00 |
| CNCCOc1cc2nccc(Oc3c(F)cc(NC(=O)c4cnccc4OC[C@@H](C)O)cc3F)c2cc1OC [Example 65, (R)-N-(3,5-difluoro-4-((6-methoxy-7-(2-(methylamino)ethoxy)quinolin-4-yl)oxy)phenyl)-4-(2-hydroxypropoxy)pyridine-3-carboxamide] | ≥ 7.00 | ≥ 7.00 | 6.00 to 7.00 | ≥ 7.00 |
| COc1cc2nccc(Oc3c(F)cc(NC(=O)c4cnccc4OC)cc3F)c2cc1O[C@H](C)CO [Example 131, (R)-N-(3,5-difluoro-4-{[6-((1-hydroxypropan-2-yl)oxy)-7-methoxyquinolin-4-yl]oxy}phenyl)-4-methoxypyridine-3-carboxamide] | ≥ 7.00 | ≥ 7.00 | ≥ 7.00 | ≥ 7.00 |
| CNCCOc1cc2nccc(Oc3cc(F)c(NC(=O)c4cnccc4OC)cc3F)c2cc1OC [Example 24, N-[2,5-difluoro-4-({6-methoxy-7-[2-(methylamino)ethoxy]quinolin-4-yl}oxy)phenyl]-4-methoxypyridine-3-carboxamide] | ≥ 7.00 | ≥ 7.00 | 6.00 to 7.00 | ≥ 7.00 |
| COc1cc2c(Oc3c(F)cc(NC(=O)c4cnccc4OC)cc3F)ccnc2cc1OCCN1CCOCC1 [Example 29, N-[3,5-difluoro-4-({6-methoxy-7-[2-(morpholin-4-yl)ethoxy]quinolin-4-yl}oxy)phenyl]-4-methoxypyridine-3-carboxamide] | ≥ 7.00 | ≥ 7.00 | ≥ 7.00 | ≥ 7.00 |
| COc1ccncc1C(=O)Nc1cc(F)c(Oc2ccnc3cc(OC)c(OC4(CO)CC4)nc23)c(F)c1 [Example 147, N-(3,5-difluoro-4-((6-(1-(hydroxymethyl)cyclopropoxy)-7-methoxy-1,5-naphthyridin-4-yl)oxy)phenyl)-4-methoxynicotinamide] | ≥ 7.00 | ≥ 7.00 | ≥ 7.00 | ≥ 7.00 |
| COc1cc2nccc(Oc3c(F)cc(NC(=O)c4cnccc4OC)cc3F)c2cc1OC1(CO)CC1 [Example 132, N-(3,5-difluoro-4-((6-(1-(hydroxymethyl)cyclopropoxy)-7-methoxyquinolin-4-yl)oxy)phenyl)-4-methoxynicotinamide] | ≥ 7.00 | ≥ 7.00 | ≥ 7.00 | ≥ 7.00 |
| COc1cc2c(Oc3c(F)cc(NC(=O)c4c(OC5CC5)ccnc4F)cc3F)ccnc2cc1OCCO [Example 118] | ≥ 7.00 | ≥ 7.00 | ≥ 7.00 | ≥ 7.00 |
| COc1ccncc1C(=O)Nc1cc(F)c(Oc2ccnc3cc(OCCO)c(OC)nc23)c(F)c1 [Example 138, N-(3,5-difluoro-4-((7-(2-hydroxyethoxy)-6-methoxy-1,5-naphthyridin-4-yl)oxy)phenyl)-4-methoxypyridine-3-carboxamide] | ≥ 7.00 | ≥ 7.00 | ≥ 7.00 | ≥ 7.00 |
| CNCCOc1cc2nccc(Oc3c(F)cc(NC(=O)c4cnccc4OC4CC4)c(F)c3F)c2cc1OC [Example 93, 4-cyclopropoxy-N-[2,3,5-trifluoro-4-({6-methoxy-7-[2-(methylamino)ethoxy]quinolin-4-yl}oxy)phenyl]pyridine-3-carboxamide] | ≥ 7.00 | ≥ 7.00 | ≥ 7.00 | ≥ 7.00 |
| COc1cc2c(Oc3c(F)cc(NC(=O)c4cnccc4OC)cc3F)ccnc2cc1OC(F)(F)F [Example 37, N-(3,5-difluoro-4-((6-methoxy-7-(trifluoromethoxy)quinolin-4-yl)oxy)phenyl)-4-methoxypyridine-3-carboxamide] | ≥ 7.00 | 6.00 to 7.00 | 6.00 to 7.00 | ≥ 7.00 |
